{"source": "patent US11684067B2", "about": "“Generation of peroxyformic acid through polyhydric alcohol formate” (priority 2014, dated 2023)", "key": {"pseudomonas": {"tested_on": "pseudomonas", "test": "Suspension test in cooling tower water samples", "type": "cell-based", "details": "5 ppm Ester PFA / 6.13 ppm POAA, 10 minutes", "description": "The antimicrobial efficacy of peroxyformic acid generated through the perhydrolysis of glycerol formatted were tested against pseudomonas in cooling tower samples at both 25° C. and 37° C., along with the peroxyacetic acid (POAA) controls, and the results are summarized in Table 6 and 7 below."}, "[1]": {"tested_on": "Nalidixic acid resistant E. coli O157:H7", "test": "Reduction of E. coli on raw beef brisket, dip treatment", "type": "cell-based", "details": "10 minutes dip, ambient, 220 ppm POAA / 180 ppm PFA / 50 ppm LAS per formula (Table 15)", "description": "Nalidixic acid resistant E. coli O157:H7 was used to evaluate the efficacy in treatment with performic acid composition on raw beef brisket according to the conditions shown in Table 14.\nThe generation of PFA from the perhydrolysis of glycerol formates, PFA formulations, POAA formations and controls were evaluated as shown in Table 15."}, "[2]": {"tested_on": "Aspergillus brasiliensis ATCC 16403", "test": "Anti-fungal suspension test of Ester PFA, dirty conditions", "type": "cell-based", "source_text": "Aspergillus brasilensis ATCC 16403 was used to evaluate the efficacy in treatment with performic acid compositions according to the conditions shown in Table 18."}, "[3]": {"tested_on": "Aspergillus brasiliensis ATCC 16404", "test": "Fungicidal activity of ester PFA, dirty conditions (Example 20)", "type": "cell-based", "details": "35°C, 5 minutes", "source_text": "Various Bacillus and Aspergillus pathogens were used to evaluate the micro efficacy of ester PFA generated according to methods of the present invention."}, "[4]": {"test": "Perhydrolysis of esters in H2O2 solution, peracid by iodometric titration", "type": "physicochemical", "details": "50 ppm ester; for peracid generation under the tested conditions: 150 ppm H2O2, pH 8.5; for Peracid: 150 ppm H2O2, pH 8.5, ambient", "description": "(§1) [drawing 8] were added to 150 ppm H2O2 solution of pH 8.5 (DI water adjusted by adding 3.0 g of NaHCO3 per liter of water and then adjusted pH with Na2CO3) respectively under ambient conditions. The concentration of peroxycarboxylic acids were measured by an iodometric titration method.\nas §1, with “Fifty (50) ppm various formic acid esters” for “[drawing 8]”, “method. […]” for “method.”"}, "[5]": {"details": "Peninsula Cooling Water pH 8.81, 25°C"}, "[6]": {"details": "Peninsula Cooling Water pH 8.81, 37°C"}}, "note": "Structures can show the parent of a compound that is named as a salt.", "data": [{"smiles": "O=COO", "note": "[Ester PFA, peroxyformic acid]", "values": [{"measurement": "Avg. Log10 Growth", "setting": "pseudomonas; BP Cooling Water pH 8.74, 25°C", "value": 2.74, "unit": "Log10"}, {"measurement": "Log10 Reduction", "setting": "pseudomonas; BP Cooling Water pH 8.74, 25°C", "value": 2.93, "unit": "Log10"}, {"measurement": "Avg. Log10 Growth", "setting": "pseudomonas; BP Cooling Water pH 8.74, 37°C", "value": 2.68, "unit": "Log10"}, {"measurement": "Log10 Reduction", "setting": "pseudomonas; BP Cooling Water pH 8.74, 37°C", "value": 2.42, "unit": "Log10"}, {"measurement": "Avg. Log10 Growth", "setting": "pseudomonas; [5]", "value": 2.76, "unit": "Log10"}, {"measurement": "Log10 Reduction", "setting": "pseudomonas; [5]", "value": 2.42, "unit": "Log10"}, {"measurement": "Avg. Log10 Growth", "setting": "pseudomonas; [6]", "value": 2.70, "unit": "Log10"}, {"measurement": "Log10 Reduction", "setting": "pseudomonas; [6]", "value": 2.40, "unit": "Log10"}, {"measurement": "Average Log CFU/cm2", "setting": "[1]", "value": 2.74, "unit": "Log CFU/cm2"}, {"measurement": "Log reduction", "setting": "[1]", "value": 1.30, "unit": "Log"}, {"measurement": "Log10 Growth", "setting": "[2]; 320 ppm PFA, 20°C, 5 minutes", "value": 3.27, "unit": "Log10"}, {"measurement": "Log10 Reduction", "setting": "[2]; 320 ppm PFA, 20°C, 5 minutes", "value": 2.57, "unit": "Log10"}, {"measurement": "Log10 Growth", "setting": "[2]; 320 ppm PFA, 20°C, 10 minutes", "value": 2.22, "unit": "Log10"}, {"measurement": "Log10 Reduction", "setting": "[2]; 320 ppm PFA, 20°C, 10 minutes", "value": 3.61, "unit": "Log10"}, {"measurement": "Log10 Growth", "setting": "[2]; 320 ppm PFA, 30 C., 5 minutes", "value": 2.19, "unit": "Log10"}, {"measurement": "Log10 Reduction", "setting": "[2]; 320 ppm PFA, 30 C., 5 minutes", "value": 3.64, "unit": "Log10"}, {"measurement": "Log10 Growth", "setting": "[2]; 320 ppm PFA, 30 C., 10 minutes", "value": "<2.15", "unit": "Log10"}, {"measurement": "Log10 Reduction", "setting": "[2]; 320 ppm PFA, 30 C., 10 minutes", "value": ">3.68", "unit": "Log10"}, {"measurement": "Log10 Growth", "setting": "[2]; 400 ppm PFA, 20°C, 5 minutes", "value": "<2.15", "unit": "Log10"}, {"measurement": "Log10 Reduction", "setting": "[2]; 400 ppm PFA, 20°C, 5 minutes", "value": ">3.68", "unit": "Log10"}, {"measurement": "Log10 Growth", "setting": "[2]; 400 ppm PFA, 20°C, 10 minutes", "value": "<2.15", "unit": "Log10"}, {"measurement": "Log10 Reduction", "setting": "[2]; 400 ppm PFA, 20°C, 10 minutes", "value": ">3.68", "unit": "Log10"}, {"measurement": "Log10 Growth", "setting": "[2]; 400 ppm PFA, 30 C., 5 minutes", "value": 1.48, "unit": "Log10"}, {"measurement": "Log10 Reduction", "setting": "[2]; 400 ppm PFA, 30 C., 5 minutes", "value": 4.36, "unit": "Log10"}, {"measurement": "Log10 Growth", "setting": "[2]; 400 ppm PFA, 30 C., 10 minutes", "value": "<2.15", "unit": "Log10"}, {"measurement": "Log10 Reduction", "setting": "[2]; 400 ppm PFA, 30 C., 10 minutes", "value": ">3.68", "unit": "Log10"}, {"measurement": "Log10 Growth", "setting": "[3]; Table 23: 300 ppm PFA", "value": 3.87, "unit": "Log10"}, {"measurement": "Log10 Reduction", "setting": "[3]; Table 23: 300 ppm PFA", "value": 2.26, "unit": "Log10"}, {"measurement": "Log10 Growth", "setting": "[3]; Table 23: 350 ppm PFA", "value": 2.23, "unit": "Log10"}, {"measurement": "Log10 Reduction", "setting": "[3]; Table 23: 350 ppm PFA", "value": 3.91, "unit": "Log10"}]}, {"smiles": "CCOC=O", "note": "[Ethyl formate]", "values": [{"measurement": "peracid generation under the tested conditions", "setting": "[4]", "value": "no detectable peracid"}, {"measurement": "Peracid", "setting": "[4]; 1 min", "value": 0.00, "unit": "ppm"}, {"measurement": "Peracid", "setting": "[4]; 5 min", "value": 0.00, "unit": "ppm"}, {"measurement": "Peracid", "setting": "[4]; 10 min", "value": 0.00, "unit": "ppm"}, {"measurement": "Peracid", "setting": "[4]; 15 min", "value": 0.00, "unit": "ppm"}, {"measurement": "Peracid", "setting": "[4]; 25 min", "value": 0.00, "unit": "ppm"}, {"measurement": "Peracid", "setting": "[4]; 35 min", "value": 0.00, "unit": "ppm"}]}, {"smiles": "CC(=O)OCC(COC(C)=O)OC(C)=O", "note": "[Triacetin]", "values": [{"measurement": "peracid generation under the tested conditions", "setting": "[4]", "value": "no detectable peracid"}, {"measurement": "Peracid", "setting": "[4]; 1 min", "value": 0.00, "unit": "ppm"}, {"measurement": "Peracid", "setting": "[4]; 5 min", "value": 0.00, "unit": "ppm"}, {"measurement": "Peracid", "setting": "[4]; 10 min", "value": 0.00, "unit": "ppm"}, {"measurement": "Peracid", "setting": "[4]; 15 min", "value": 0.00, "unit": "ppm"}, {"measurement": "Peracid", "setting": "[4]; 25 min", "value": 0.00, "unit": "ppm"}, {"measurement": "Peracid", "setting": "[4]; 35 min", "value": 0.00, "unit": "ppm"}]}]}
